Experimental data published in paper PMC10064984, “Anti-cyclooxygenase, anti-glycation, and anti-skin aging effect of Dendrobium officinale flowers’ aqueous extract and its phytochemical validation in aging” (Frontiers in Immunology, 2023).
Several values for one entry are separate records, joined by “and”; a condition that tells them apart may be missing. Equal values may be shown once.

How the values were obtained:
[1] = ABTS·+ decolourisation capacity; format: biochemical; settings: mean ± SD, n = 3
Outline: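 ABTS·+ working solution in 0.2 M phosphate buffer, pH 7.4, was adjusted to A729 0.8 ± 0.05, and 100 μl was mixed with 200 μl sample; absorbance was read at 729 nm after 10 min, in triplicate. Inhibition was taken relative to a phosphate-buffer control, and IC50 was obtained graphically from dose-inhibition curves.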

COX-2 = biological target: T1, COX-2 (Homo sapiens, UniProt P35354); assay: Anti-COX-2 assay (COX-2 Inhibitor Screening Kit); format: biochemical
T1 construct: purchased Beyotime S0168
T1 sequence (P35354 18-604): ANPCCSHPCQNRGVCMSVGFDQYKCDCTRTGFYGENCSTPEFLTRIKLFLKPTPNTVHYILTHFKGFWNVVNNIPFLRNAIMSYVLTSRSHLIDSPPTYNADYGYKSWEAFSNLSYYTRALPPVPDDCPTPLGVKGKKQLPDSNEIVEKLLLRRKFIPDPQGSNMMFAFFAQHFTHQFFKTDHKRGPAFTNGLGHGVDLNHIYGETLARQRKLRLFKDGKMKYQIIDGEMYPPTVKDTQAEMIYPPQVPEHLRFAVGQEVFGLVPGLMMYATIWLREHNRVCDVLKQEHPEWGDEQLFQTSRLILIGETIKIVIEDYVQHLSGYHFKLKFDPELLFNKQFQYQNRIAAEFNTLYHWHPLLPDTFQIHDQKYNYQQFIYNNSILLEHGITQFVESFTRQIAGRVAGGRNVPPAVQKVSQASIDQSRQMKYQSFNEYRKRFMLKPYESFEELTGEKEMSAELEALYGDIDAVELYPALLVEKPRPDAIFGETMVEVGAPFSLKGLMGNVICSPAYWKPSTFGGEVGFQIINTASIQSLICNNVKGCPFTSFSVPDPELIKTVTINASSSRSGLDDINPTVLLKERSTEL

DPPH· scavenging = format: biochemical; settings: mean ± SD, n = 3
[2] = Online UPLC-PDA-MS-ABTS·+ scavenging (postcolumn derivatisation); settings: within DOF extract
Method: Online identification of antioxidant components of DOF extract was performed using a UPLC system (Milford, MA, USA) consisting of a Waters photodiode array detector and a Waters postcolumn derivatisation system supplying fresh ABTS solution (UPLC-PDA-QDa-ABTS). […] The detection wavelengths were set at 280 and 734 nm, and the injection volume of the sample was 10 μl.
To detect radical scavengers, the UPLC system was coupled with a Waters pump, which supplied freshly prepared ABTS·+ solution into a reaction coil (15 m, 0.25 mm ID) with a flow rate of 0.2 ml/min at 37°C. Negative peaks were recorded based on a decrease of absorbance at 729 nm after the reaction of individual compounds with the ABTS·+ radical. For preliminary identification of compounds, a Waters Acquity QDa mass detector in negative ionisation mode was connected in series to PDA with the following parameters: electrospray ion source; cone voltage, 15 V; atomiser, N2; and scanning range, 100–800 m/z.

[3] = Fluorescent AGEs formation in a BSA-fructose/glucose system; format: biochemical; settings: mean ± SD, n = 3; read-out: BSA-glycation IC50
Outline: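 BSA glycated in vitro with D-glucose and D-fructose while test samples, dissolved in DMSO:water (1:4), were present. Percent inhibition of fluorescent AGE formation calculated from fluorescence corrected for sample-only and BSA-free blanks; triplicate.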

[4] = FRAP total antioxidant capacity; format: biochemical;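 note: colourimetric FRAP kit assay read as absorbance in 96-well plates, values as mM FeSO4 via standard curve, EC1 being sample concentration matching 1.0 mmol/L FeSO4, Trolox positive control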
[5] = lower part of sheet (compound series)

In the case of O=c1cc(-c2ccc(O)cc2)oc2c(C3OC(CO)C(O)C(O)C3O)c(O)c(C3OC(CO)C(O)C(O)C3O)c(O)c12 (stereo not shown) [compound 10, Vicenin-2], the IC50 [1] is reported as 74.41 ± 0.69 µM, the “COX-2 inhibition (in words)” value (COX-2) is reported as “no inhibitory effects” and the inhibition at 31.25 µM (COX-2; 31.25 μM, single replicates) is reported as 30%. The COX-2 inhibition (COX-2; 31.25 μM, single replicates, listed as T7, 31.25 µM) was 20.65% and 19.20%, the COX-2 inhibition (COX-2; 62.5 μM, single replicates, listed as T7, 62.5 µM) was -16.69% and -16.14% and 33.41% and the COX-2 inhibition (COX-2; 125 μM, single replicates, listed as T7, 125 µM) was -28.47% and -18.44% and 17.41%. The COX-2 inhibition (COX-2; 250 μM, single replicates, listed as T7, 250 µM) was -29.84% and -23.37% and -7.75%, the COX-2 inhibition (COX-2; 500 μM, single replicates, listed as T7, 500 µM) was -24.98% and -23.56% and -9.18% and the COX-2 inhibition (COX-2; 1000 μM, single replicates, listed as T7, 1000 µM) was -59.66% and -32.74% and -11.22%. For the same molecule, the COX-2 inhibition (COX-2; 2000 μM (2mM), single replicates, listed as T7) was -38.84% and -31.81% and -15.79%, the IC50 (DPPH· scavenging) was > 5000 µM and the “online ABTS radical scavenging (size of negative peaks at 734 nm)” value [2] was “strongest ABTS radical scavengers”. The IC50 [3] was 258 ± 7.56 µM and the “FRAP EC1” value [4, 5] was >5000 µM.
For C[C@@H]1O[C@@H](OC[C@H]2O[C@@H](Oc3c(-c4ccc(O)c(O)c4)oc4cc(O)cc(O)c4c3=O)[C@H](O)[C@@H](O)[C@@H]2O)[C@H](O)[C@H](O)[C@H]1O [compound 24, Rutin], the IC50 [1] was 33.1 ± 0.37 µM, the “COX-2 inhibition (in words)” value (COX-2) was “great COX-2 inhibition” and the inhibition at 3.125 µM (COX-2; 3.125 μM, single replicates) was 23.1%. For the same molecule, the COX-2 inhibition (COX-2; 3.125 μM, single replicates, listed as T3, 3.125 µM) was 13.73% and 18.58%, the inhibition at 6.25 µM (COX-2; 6.25 μM, single replicates) was 42.8% and the COX-2 inhibition (COX-2; 6.25 μM, single replicates, listed as T3, 6.25 µM) was 37.16%. For the same molecule, the COX-2 inhibition (COX-2; 12.5 μM, single replicates, listed as T3, 12.5 µM) was 68.24% and 51.05% and 71.69%, the inhibition at 25 µM (COX-2; 25 μM, single replicates) was 78% and the COX-2 inhibition (COX-2; 25 μM, single replicates, listed as T3, 25 µM) was 72.08% and 76.61%. The inhibition at 50 µM (COX-2; 50 μM, single replicates) was 81.2%, the COX-2 inhibition (COX-2; 50 μM, single replicates, listed as T3, 50 µM) was 77.16% and 78.42% and the inhibition at 100 µM (COX-2; 100 μM, single replicates) was 81.5%. The COX-2 inhibition (COX-2; 100 μM, single replicates, listed as T3, 100 µM) was 79.28% and 81.06%, the inhibition at 200 µM (COX-2; 200 μM, single replicates) was 84.3% and the COX-2 inhibition (COX-2; 200 μM, single replicates, listed as T3, 200 µM) was 81.14% and 83.16%. For the same molecule, the IC50 (DPPH· scavenging) was 43.3 ± 1.75 µM, the “online ABTS radical scavenging (size of negative peaks at 734 nm)” value [2] was “strongest ABTS radical scavengers” and the IC50 [3] was 222 ± 13.5 µM. The “FRAP EC1” value [4, 5] was 205.0 ± 12.2 µM and the “FRAP EC1” value ([4]; mean ± SD, n = 3) was 205.0 ± 12.2 µM.
